test system: HIV in the HTLV-1 transformed cell line MT-4; assay: organism not typed; format: cell-based; conditions: MT4, 96 h, MT-4 cells; luciferase/cell titer glo readout after 96 hours; 10 point dose response

Question: `Cc1ccc(-c2c(C)c3c(c(C)c2[C@H](OC(C)(C)C)C(=O)O)CN(CC2CCCCC2)C3)cc1` [Example 30, (S)-2-(tert-butoxy)-2-(2-(cyclohexylmethyl)-4,7-dimethyl-6-(p-tolyl)isoindolin-5-yl)acetic acid] was tested. Which IC50 did it give?
Answer: The IC50 was 47 nM.

Question: Which IC50 does the source give for `Cc1ccc(-c2c(C)c3c(c(C)c2[C@H](OC(C)(C)C)C(=O)O)CN(C2CCCC(c4ccccc4)C2)C3)cc1` (stereo partly drawn) [Example 31, (2S)-2-(tert-butoxy)-2-(4,7-dimethyl-2-(3-phenylcyclohexyl)-6-(p-tolyl)isoindolin-5-yl)acetic acid] here?
Answer: The IC50 was 203 nM.

Question: For `Cc1ccc(-c2c(C)c3c(c(C)c2[C@H](OC(C)(C)C)C(=O)O)CN(C2CCC[C@@H](C)C2)C3)cc1` (stereo partly drawn) [Example 32, (2S)-2-(tert-butoxy)-2-(4,7-dimethyl-2-((3R)-3-methylcyclohexyl)-6-(p-tolyl)isoindolin-5-yl)acetic acid], which IC50 is on record?
Answer: The IC50 was 723 nM.

Question: With `Cc1ccc(-c2c(C)c3c(c(C)c2[C@H](OC(C)(C)C)C(=O)O)CN(C(=O)N[C@H]2CC[C@H](C)CC2)C3)cc1` [Example 33, (S)-2-(tert-butoxy)-2-(4,7-dimethyl-2-(((1r,4S)-4-methylcyclohexyl)carbamoyl)-6-(p-tolyl)isoindolin-5-yl)acetic acid] as the compound, how does the IC50 read?
Answer: The IC50 was 616 nM.

Question: How did the IC50 turn out when `Cc1ccc(-c2c(C)c3c(c(C)c2[C@H](OC(C)(C)C)C(=O)O)CN(C(=O)NCc2ccccc2)C3)cc1` [Example 34, (S)-2-(2-(benzylcarbamoyl)-4,7-dimethyl-6-(p-tolyl)isoindolin-5-yl)-2-(tert-butoxy)acetic acid] was run?
Answer: Its IC50 is 86 nM.

Question: How did the IC50 turn out when `Cc1ccc(-c2c(C)c3c(c(C)c2[C@H](OC(C)(C)C)C(=O)O)CN(C(=O)N2CCCC2)C3)cc1` [Example 35, (S)-2-(tert-butoxy)-2-(4,7-dimethyl-2-(pyrrolidine-1-carbonyl)-6-(p-tolyl)isoindolin-5-yl)acetic acid] was run?
Answer: The IC50 was 12 nM.

Question: How did the IC50 turn out when `Cc1ccc(-c2c(C)c3c(c(C)c2[C@H](OC(C)(C)C)C(=O)O)CN(CCCc2cccc(F)c2)C3)cc1` [Example 38, (2S)-2-(tert-butoxy)-2-{2-[3-(3-fluorophenyl)propyl]-4,7-dimethyl-6-(4-methylphenyl)-2,3-dihydro-1H-isoindol-5-yl}acetic acid] was run?
Answer: The IC50 was 1230 nM.

Question: For `Cc1ccc(-c2c(C)c3c(c(C)c2[C@H](OC(C)(C)C)C(=O)O)CN(CCc2ccccc2)C3)cc1` [Example 39, (2S)-2-(tert-butoxy)-2-[4,7-dimethyl-6-(4-methylphenyl)-2-(2-phenylethyl)-2,3-dihydro-1H-isoindol-5-yl]acetic acid], which IC50 is on record?
Answer: The IC50 was 872 nM.

Question: For `Cc1ccc(-c2c(C)c3c(c(C)c2[C@H](OC(C)(C)C)C(=O)O)CN(CC2CCCN2C(=O)OC(C)(C)C)C3)cc1` (stereo partly drawn) [Example 40, (2S)-2-(tert-butoxy)-2-[2-({1-[(tert-butoxy)carbonyl]pyrrolidin-2-yl}methyl)-4,7-dimethyl-6-(4-methylphenyl)-2,3-dihydro-1H-isoindol-5-yl]acetic acid], which IC50 is on record?
Answer: The IC50 was 3430 nM.

Question: With `Cc1ccc(-c2c(C)c3c(c(C)c2[C@H](OC(C)(C)C)C(=O)O)CN(Cc2cccnc2)C3)cc1` [Example 41, (2S)-2-(tert-butoxy)-2-[4,7-dimethyl-6-(4-methylphenyl)-2-(pyridin-3-ylmethyl)-2,3-dihydro-1H-isoindol-5-yl]acetic acid] as the compound, how does the IC50 read?
Answer: The IC50 was 50 nM.

Question: With `CNC(=O)c1cccc(CN2Cc3c(C)c(-c4ccc(C)cc4)c([C@H](OC(C)(C)C)C(=O)O)c(C)c3C2)c1` [Example 43, (2S)-2-(tert-butoxy)-2-(4,7-dimethyl-2-{[3-(methylcarbamoyl)phenyl]methyl}-6-(4-methylphenyl)-2,3-dihydro-1H-isoindol-5-yl)acetic acid] as the compound, how does the IC50 read?
Answer: The IC50 was 937 nM.

Question: `Cc1ccc(-c2c(C)c3c(c(C)c2[C@H](OC(C)(C)C)C(=O)O)CN(Cc2cccc(C(=O)N4CCCCC4)c2)C3)cc1` [Example 44, (2S)-2-(tert-butoxy)-2-[4,7-dimethyl-6-(4-methylphenyl)-2-{[3-(piperidine-1-carbonyl)phenyl]methyl}-2,3-dihydro-1H-isoindol-5-yl]acetic acid] was tested. Which IC50 did it give?
Answer: Its IC50 is 3350 nM.

Question: How did the IC50 turn out when `Cc1ccc(-c2c(C)c3c(c(C)c2[C@H](OC(C)(C)C)C(=O)O)CN(Cc2cccc(Cl)c2)C3)cc1` [Example 45, (2S)-2-(tert-butoxy)-2-{2-[(3-chlorophenyl)methyl]-4,7-dimethyl-6-(4-methylphenyl)-2,3-dihydro-1H-isoindol-5-yl}acetic acid] was run?
Answer: Its IC50 is 43 nM.

Question: How did the IC50 turn out when `Cc1ccc(-c2c(C)c3c(c(C)c2[C@H](OC(C)(C)C)C(=O)O)CN(Cc2cccc(N4CCOCC4)c2)C3)cc1` [Example 46, (2S)-2-(tert-butoxy)-2-[4,7-dimethyl-6-(4-methylphenyl)-2-{[3-(morpholin-4-yl)phenyl]methyl}-2,3-dihydro-1H-isoindol-5-yl]acetic acid] was run?
Answer: The IC50 was 4080 nM.

Question: For `Cc1ccc(-c2c(C)c3c(c(C)c2[C@H](OC(C)(C)C)C(=O)O)CN(Cc2cccc(F)c2C)C3)cc1` [Example 47, (2S)-2-(tert-butoxy)-2-{2-[(3-fluoro-2-methylphenyl)methyl]-4,7-dimethyl-6-(4-methylphenyl)-2,3-dihydro-1H-isoindol-5-yl}acetic acid], which IC50 is on record?
Answer: The IC50 was 44 nM.

Question: How did the IC50 turn out when `COC(=O)N1Cc2c(C)c(-c3ccc(C)cc3)c([C@H](OC(C)(C)C)C(=O)O)c(C)c2C1` [Example 48, (2S)-2-(tert-butoxy)-2-[2-(methoxycarbonyl)-4,7-dimethyl-6-(4-methylphenyl)-2,3-dihydro-1H-isoindol-5-yl]acetic acid] was run?
Answer: Its IC50 is 573 nM.

Question: `Cc1ccc(-c2c(C)c3c(c(C)c2[C@H](OC(C)(C)C)C(=O)O)CN(S(=O)(=O)c2ccc(F)cc2)C3)cc1` [Example 49, (2S)-2-(tert-butoxy)-2-[2-(4-fluorobenzenesulfonyl)-4,7-dimethyl-6-(4-methylphenyl)-2,3-dihydro-1H-isoindol-5-yl]acetic acid] was tested. Which IC50 did it give?
Answer: Its IC50 is 100 nM.

Question: Which IC50 does the source give for `Cc1ccc(-c2c(C)c3c(c(C)c2[C@H](OC(C)(C)C)C(=O)O)CN(S(=O)(=O)N2CCCCC2)C3)cc1` [Example 50, (2S)-2-(tert-butoxy)-2-[4,7-dimethyl-6-(4-methylphenyl)-2-(piperidine-1-sulfonyl)-2,3-dihydro-1H-isoindol-5-yl]acetic acid] here?
Answer: The IC50 was 29 nM.

Question: With `Cc1ccc(-c2c(C)c3c(c(C)c2[C@H](OC(C)(C)C)C(=O)O)CN(S(=O)(=O)NC(C)C)C3)cc1` [Example 51, (2S)-2-(tert-butoxy)-2-[4,7-dimethyl-6-(4-methylphenyl)-2-[(propan-2-yl)sulfamoyl]-2,3-dihydro-1H-isoindol-5-yl]acetic acid] as the compound, how does the IC50 read?
Answer: Its IC50 is 44 nM.

Question: Which IC50 does the source give for `Cc1ccc(-c2c(C)c3c(c(C)c2[C@H](OC(C)(C)C)C(=O)O)CN(S(=O)(=O)N2CCOCC2)C3)cc1` [Example 52, (2S)-2-(tert-butoxy)-2-[4,7-dimethyl-6-(4-methylphenyl)-2-(morpholine-4-sulfonyl)-2,3-dihydro-1H-isoindol-5-yl]acetic acid] here?
Answer: Its IC50 is 18 nM.

Question: Which IC50 does the source give for `Cc1ccc(-c2c(C)c3c(c(C)c2[C@H](OC(C)(C)C)C(=O)O)CN(Cc2ccc(F)c(F)c2)C3)cc1` [Example 53, (2S)-2-(tert-butoxy)-2-{2-[(3,4-difluorophenyl)methyl]-4,7-dimethyl-6-(4-methylphenyl)-2,3-dihydro-1H-isoindol-5-yl}acetic acid] here?
Answer: Its IC50 is 51 nM.

Question: How did the IC50 turn out when `Cc1ccc(-c2c(C)c3c(c(C)c2[C@H](OC(C)(C)C)C(=O)O)CN(C(=O)NC2CCC(C)CC2)C3)cc1` (stereo partly drawn) [Example 54, (2S)-2-(tert-butoxy)-2-[4,7-dimethyl-6-(4-methylphenyl)-2-{[(1r,4r)-4-methylcyclohexyl]carbamoyl}-2,3-dihydro-1H-isoindol-5-yl]acetic acid] was run?
Answer: Its IC50 is 288 nM.

Question: With `Cc1ccc(-c2c(C)c3c(c(C)c2[C@H](OC(C)(C)C)C(=O)O)CN(C(=O)N2CCOCC2)C3)cc1` [Example 57, (2S)-2-(tert-butoxy)-2-[4,7-dimethyl-6-(4-methylphenyl)-2-(morpholine-4-carbonyl)-2,3-dihydro-1H-isoindol-5-yl]acetic acid] as the compound, how does the IC50 read?
Answer: The IC50 was 44 nM.

Question: `Cc1ccc(-c2c(C)c3c(c(C)c2[C@H](OC(C)(C)C)C(=O)O)CN(C(=O)NCC2CCCCC2)C3)cc1` [Example 58, (2S)-2-(tert-butoxy)-2-{2-[(cyclohexylmethyl)carbamoyl]-4,7-dimethyl-6-(4-methylphenyl)-2,3-dihydro-1H-isoindol-5-yl}acetic acid] was tested. Which IC50 did it give?
Answer: The IC50 was 350 nM.

Question: How did the IC50 turn out when `Cc1ccc(-c2c(C)c3c(c(C)c2[C@H](OC(C)(C)C)C(=O)O)CN(C(=O)N(C)C)C3)cc1` [Example 59, (2S)-2-(tert-butoxy)-2-[2-(dimethylcarbamoyl)-4,7-dimethyl-6-(4-methylphenyl)-2,3-dihydro-1H-isoindol-5-yl]acetic acid] was run?
Answer: Its IC50 is 279 nM.

Question: Which IC50 does the source give for `Cc1ccc(-c2c(C)c3c(c(C)c2[C@H](OC(C)(C)C)C(=O)O)CN(C(=O)N2CCCCCC2)C3)cc1` [Example 60, (2S)-2-[2-(azepane-1-carbonyl)-4,7-dimethyl-6-(4-methylphenyl)-2,3-dihydro-1H-isoindol-5-yl]-2-(tert-butoxy)acetic acid] here?
Answer: Its IC50 is 14 nM.

Question: How did the IC50 turn out when `Cc1ccc(-c2c(C)c3c(c(C)c2[C@H](OC(C)(C)C)C(=O)O)CN(C(=O)N2CCC2)C3)cc1` [Example 61, (2S)-2-[2-(azetidine-1-carbonyl)-4,7-dimethyl-6-(4-methylphenyl)-2,3-dihydro-1H-isoindol-5-yl]-2-(tert-butoxy)acetic acid] was run?
Answer: Its IC50 is 38 nM.

Question: Which IC50 does the source give for `COCCN(C)C(=O)N1Cc2c(C)c(-c3ccc(C)cc3)c([C@H](OC(C)(C)C)C(=O)O)c(C)c2C1` [Example 62, (2S)-2-(tert-butoxy)-2-{2-[(2-methoxyethyl)(methyl)carbamoyl]-4,7-dimethyl-6-(4-methylphenyl)-2,3-dihydro-1H-isoindol-5-yl}acetic acid] here?
Answer: Its IC50 is 44 nM.

Question: Which IC50 does the source give for `Cc1ccc(-c2c(C)c3c(c(C)c2[C@H](OC(C)(C)C)C(=O)O)CN(C(=O)NC(C)(C)C)C3)cc1` [Example 63] here?
Answer: The IC50 was 15 nM.

same assay, conditions: MT-4 cells; luciferase/cell titer glo readout after 96 hours; 10 point dose response

Question: How did the IC50 turn out when `Cc1ccc(-c2c(C)c3c(c(C)c2[C@H](OC(C)(C)C)C(=O)O)CN([C@@H]2CCC[C@@H](C)C2)C3)cc1` [Example 37, (2S)-2-(tert-butoxy)-2-{4,7-dimethyl-2-[(1R,3R)-3-methylcyclohexyl]-6-(4-methylphenyl)-2,3-dihydro-1H-isoindol-5-yl}acetic acid] was run?
Answer: Its IC50 is 723 nM.
